Non-standard residues stand in square brackets, D forms with d. No end group written: not given here. hCys = N[C@@H](CCS)C(=O)O; Orn = NCCC[C@H](N)C(=O)O
What was measured:
[1] = test system: hMSC-Human Mesenchymal Stem Cells; test: Mesenchymal stem cell (MSC) proliferation-promoting effect; assay type: cell-based; conditions: 0.001 to 3 nmol/L, compared with bFGF at the same molar ratio; FIG. 3
Protocol: The mesenchymal stem cell (MSC) proliferation-promoting effect of the cyclic peptide complex was evaluated.
The MSC was activated and subcultured according to the recommended protocol of FUJIFILM Irvine Scientific, Inc. using hMSC-Human Mesenchymal Stem Cells (Lonza, PT-2501) and PRIME-XV MSC Expansion XSFM (FUJIFILM Irvine Scientific, Inc., 91149) as a culture medium. MSCs that had been subcultured 1 to 4 times were used for the evaluation.
The evaluation of the proliferation-promoting effect of MSC was performed by the following method. First, a culture medium (hereinafter, referred to as a custom culture medium) in which bFGF was removed from PRIME-XV MSC Expansion XSFM (FUJIFILM Irvine Scientific, Inc., 91149) was prepared. Next, Prime-XV Human Fibronectin (FUJIFILM Irvine Scientific, Inc., 31002) was dissolved in PBS (Fujifilm Wako Pure Chemical Corporation, 164-23551), 2 μg/cm^2 of the solution was added to a 96-well plate used for evaluation, and the 96-well plate was allowed to stand at room temperature for 3 hours to coat the 96-well plate with fibronectin. […] The number of viable cells was calculated from the imaging data and normalized by setting the number of viable cells in the well to which 1 nmol/L bFGF was added to 100, and setting the number of viable cells in the negative control well to 0.

[2] = test system: hMSC-Human Mesenchymal Stem Cells; test: Effect of maintaining MSC undifferentiated potency (gene expression); assay type: cell-based; conditions: cyclic peptide complex 10 nmol/L, bFGF 1 nmol/L, normalized to 1 nmol/L bFGF = 1, FIG. 4
Protocol: The effect of maintaining mesenchymal stem cell (MSC) undifferentiated potency of the cyclic peptide complex was evaluated.
MSC was prepared in the same manner as in Example 7.
The evaluation of the effect of maintaining the MSC undifferentiated potency was performed by the following method. First, a culture medium (hereinafter, referred to as a custom culture medium) in which bFGF was removed from PRIME-XV MSC Expansion XSFM (FUJIFILM Irvine Scientific, Inc., 91149) was prepared. Next, Prime-XV Human Fibronectin (FUJIFILM Irvine Scientific, Inc., 31002) was dissolved in PBS (Fujifilm Wako Pure Chemical Corporation, 164-23551), 2 μg/cm^2 of the solution was added to a 12-well plate used for proliferation, and the 12-well plate was allowed to stand at room temperature for 3 hours to coat the 12-well plate with fibronectin. Thereafter, the MSCs subjected to the subculture were peeled using Tryple Express (Thermo, 12604-013), washed once with a custom culture medium, suspended in a custom culture medium in which a cyclic peptide complex or bFGF (R&D Systems, 3718-GMP) was diluted to final concentrations of 10 nmol/L and 1 nmol/L, and seeded on a 12-well plate coated with fibronectin. In this case, conditions in which the cyclic peptide complex and bFGF were not added as a negative control were prepared. After culturing at 37° C. (5% CO2) for 2 nights, the culture medium was replaced by removing the supernatant of the culture medium and adding the same amount of a culture medium prepared to have the same composition as the removed culture medium. After further culturing at 37° C. (5% CO2) for 2 nights, RNA was extracted using an RNeasy Plus Mini Kit (Qiagen, 74136) according to the manufacturer's protocol. […] The expression level of each gene was normalized by setting the expression level of the well to which 1 nmol/L bFGF was added to 1.

Bovine myoblasts = test: Bovine myoblast proliferation-promoting effect; assay type: cell-based, Japanese Black cattle; conditions: 0.03 to 10 nmol/L complex versus 30 ng/mL bFGF, 4 days; FIG. 5
Protocol: The bovine cells (myoblasts) proliferation-promoting effect of the cyclic peptide complex was evaluated.
Bovine myoblasts were separated from bovine muscle tissue by the following method. First, muscle tissue of Japanese Black cattle was finely chopped in HBSS(−) (phenol red-free) (FUJIFILM Wako Pure Chemical Corporation, 085-09355), and then pronase from Streptomyces griseus (Sigma-Aldrich, 10165921001) was added thereto to a final concentration of 1 mg/mL, and the mixture was allowed to stand at 37° C. for 1 hour. After allowing to stand, HBSS containing 10% FBS was added thereto, and the cells were acquired by centrifugation. The acquired cells were suspended in D-MEM (high glucose) (containing L-glutamine and phenol red) (FUJIFILM Wako Pure Chemical Corporation, 044-29765) containing 10% final concentration of bovine serum and 30 ng/mL bFGF. Suspended cells were cultured in a culture flask coated with an iMatrix-511 solution (FUJIFILM Wako Pure Chemical Corporation, 381-07363) at 0.55 μg/cm^2. […]
The evaluation of the proliferation-promoting effect on bovine myoblasts was performed by the following method. […] The number of viable cells was calculated from the imaging data and normalized by setting the number of viable cells in the well to which 30 ng/mL bFGF was added to 100, and setting the number of viable cells in the negative control well to 0.

**Q.** With “F-(Orn(acetyl))-VYTFDAHAHSLDAALN-(Hcy)-I (F[Orn]VYTFDAHAHSLDAALN[hCys]IF[Orn]VYTFDAHAHSLDAALN[hCys]I-NH2; thioether (positions not given here); not fully specified (residues 2, 22, bridges); also: dimer of two 20-mers crosslinked via Bis-NHS-PEG13 between side-chain amino groups, C-terminal amide on each monomer) [SEQ ID NO: 346, cyclic peptide complex; C-terminal amidation, amide crosslinking between side chain amino groups of N via Bis-NHS-PEG13]” as the substance, how does the MSC proliferation-promoting effect [1] read?
**A.** The MSC proliferation-promoting effect was “same degree of MSC proliferation-promoting effect as bFGF”.

**Q.** What about the “expression level of Sox2” value [2] of the same substance?
**A.** Its value is “same degree of a gene expression level as bFGF”.

**Q.** What about the “proliferation-promoting effect on bovine myoblasts” value (Bovine myoblasts) of the same substance?
**A.** Its value is “comparable to or higher than that of bFGF”.

Reference: US20260008817A1, “CYCLIC PEPTIDE OR SALT THEREOF, AND USES THEREOF” (FUJIFILM Corporation, priority 2023, published 2026)
